We go through 1 compound from patent US11286248B2, “Pyrazine-2(1H)-ketone compound acting as FGFR inhibitor” (ZHANGZHOU PIEN TZE HUANG PHARMACEUTICAL CO., LTD., priority 2018, dated 2022).

A short description of data set [1]: Pharmacokinetic evaluation of compounds in mice. To be noted: CD-1 mouse (male), single gavage, plasma; for MRT last: read-out: MRT0-last. Format: in vivo. How it is done:
Experimental purpose: testing pharmacokinetics of the compounds in mice
CD-1 mouse (male), vehicle (an aqueous solution of 0.5% (w/v) methylcellulose and 0.5% (v/v) Tween 80), and trfluoroacetate salt of compound 0027.
The animals in groups 1 and 2 are administrated […] of the compounds by single gavage, respectively, and the administration volume is 10 mL/kg.
Whole blood samples (30 μl) are collected at the prescribed time points (0.25, 0.5, 1, 2, 4, 6, 8, 24 h) by saphenous vein blood collection, and the actual blood collection time is recorded in the test record. The acceptable error of the collection time point is a time point within 1 hour of administration time ±1 minute, and the acceptable error of other time points is a theoretical time ±5%.
All blood samples are immediately transferred to labeled commercial centrifuge tubes containing K2-EDTA. After being collected, the blood samples are centrifuged at 3200 rpm/min for 10 minutes at 4° C. to aspirate the supernatant plasma, which is quickly placed in dry ice, and kept at −20° C. or a lower temperature for LC-MS/MS analysis.

For another data set, the target named is T1, FGFR2 (Homo sapiens, UniProt P21802).
T1 construct: purchased Invitrogen PV3368
T1 sequence (P21802 22-821): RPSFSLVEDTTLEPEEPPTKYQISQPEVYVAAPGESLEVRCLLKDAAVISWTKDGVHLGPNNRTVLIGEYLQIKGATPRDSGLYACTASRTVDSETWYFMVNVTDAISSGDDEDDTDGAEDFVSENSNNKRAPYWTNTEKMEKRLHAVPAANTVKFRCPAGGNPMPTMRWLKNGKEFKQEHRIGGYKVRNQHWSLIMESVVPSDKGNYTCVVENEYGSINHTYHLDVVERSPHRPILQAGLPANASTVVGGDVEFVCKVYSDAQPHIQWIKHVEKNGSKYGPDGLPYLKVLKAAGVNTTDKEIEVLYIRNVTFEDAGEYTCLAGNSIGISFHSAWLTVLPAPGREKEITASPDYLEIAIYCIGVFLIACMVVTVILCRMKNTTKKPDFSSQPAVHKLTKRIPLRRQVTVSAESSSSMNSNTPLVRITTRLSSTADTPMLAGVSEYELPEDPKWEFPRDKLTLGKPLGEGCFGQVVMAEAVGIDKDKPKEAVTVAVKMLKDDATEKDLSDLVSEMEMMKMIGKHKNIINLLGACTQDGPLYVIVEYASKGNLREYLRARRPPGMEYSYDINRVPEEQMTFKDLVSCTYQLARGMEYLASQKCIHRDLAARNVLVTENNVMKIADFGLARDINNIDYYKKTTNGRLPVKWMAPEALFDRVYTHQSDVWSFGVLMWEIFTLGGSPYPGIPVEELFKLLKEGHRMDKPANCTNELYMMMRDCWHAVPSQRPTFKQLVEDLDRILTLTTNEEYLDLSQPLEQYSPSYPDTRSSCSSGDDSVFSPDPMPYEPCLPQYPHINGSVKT
Description: 33P isotope-labeled kinase activity test (Reaction Biology Corp), wild-type FGFR2. Format: biochemical.

The next data set has as its target T2, human FGFR4 (Homo sapiens, UniProt P22455).
T2 construct: purchased Invitrogen P3054
Nature of the data set: 33P isotope-labeled kinase activity test (Reaction Biology Corp), wild-type FGFR4. Type of data set: biochemical. To be noted: 33P-ATP 2.5 μM, substrate pEY + Mn, 120 minutes at room temperature. How it is done:
(§1) The IC50 value is determined using ^33P isotope-labeled kinase activity test (Reaction Biology Corp) to evaluate the inhibitory ability of the compounds to be tested on human FGFR1 and FGFR4.
(§2) Buffer conditions: 20 mM 4-(2-hydroxyethyl)-1-piperazineethanesulfonic acid (Hepes) (pH 7.5), 10 mM MgCl2, 1 mM ethylene glycol-bis-(2-aminoethyl ether)tetraacetic acid (EGTA), 0.02% polyoxyethylene lauryl ether (Brij35), 0.02 mg/ml bovine serum albumin (BSA), 0.1 mM sodium vanadate (Na3VO4), 2 mM dithiothreitol (DTT), and 1% DMSO.
(§3) Test steps: At room temperature, the compounds to be tested are dissolved in DMSO to prepare a 10 mM solution for use. The substrate is dissolved in the newly prepared buffer, and the kinase to be tested is added and mixed well. The DMSO solution in which the compounds to be tested are dissolved is added to the above-mentioned homogeneous reaction solution using acoustic technology (Echo 550). […] After incubating for 15 minutes, ^33P-ATP (activity: 0.01 μCi/μl, with corresponding concentration being listed in table 1) is added to start the reaction. The supplier article number, batch number, and the concentration information in the reaction solution of FGFR1, FGFR4 and substrates thereof are listed in table 1. After the reaction is carried out at room temperature for 120 minutes, the reaction solution is spotted on P81 ion exchange filter paper (Whatman #3698-915). After the filter paper is repeatedly washed with 0.75% phosphoric acid solution, the radioactivity of the phosphorylated substrate remaining on the filter paper is measured. The kinase activity data is expressed by comparing the kinase activity of the groups containing the compounds to be tested with that of the blank group (containing only DMSO). The IC50 value is obtained by curve fitting using Prism4 software (GraphPad), and the experimental results are shown in table 2.

For another data set, the target named is T3, FGFR3 (Homo sapiens, UniProt P22607).
T3 construct: purchased Invitrogen PV3145
T3 sequence (P22607 23-806): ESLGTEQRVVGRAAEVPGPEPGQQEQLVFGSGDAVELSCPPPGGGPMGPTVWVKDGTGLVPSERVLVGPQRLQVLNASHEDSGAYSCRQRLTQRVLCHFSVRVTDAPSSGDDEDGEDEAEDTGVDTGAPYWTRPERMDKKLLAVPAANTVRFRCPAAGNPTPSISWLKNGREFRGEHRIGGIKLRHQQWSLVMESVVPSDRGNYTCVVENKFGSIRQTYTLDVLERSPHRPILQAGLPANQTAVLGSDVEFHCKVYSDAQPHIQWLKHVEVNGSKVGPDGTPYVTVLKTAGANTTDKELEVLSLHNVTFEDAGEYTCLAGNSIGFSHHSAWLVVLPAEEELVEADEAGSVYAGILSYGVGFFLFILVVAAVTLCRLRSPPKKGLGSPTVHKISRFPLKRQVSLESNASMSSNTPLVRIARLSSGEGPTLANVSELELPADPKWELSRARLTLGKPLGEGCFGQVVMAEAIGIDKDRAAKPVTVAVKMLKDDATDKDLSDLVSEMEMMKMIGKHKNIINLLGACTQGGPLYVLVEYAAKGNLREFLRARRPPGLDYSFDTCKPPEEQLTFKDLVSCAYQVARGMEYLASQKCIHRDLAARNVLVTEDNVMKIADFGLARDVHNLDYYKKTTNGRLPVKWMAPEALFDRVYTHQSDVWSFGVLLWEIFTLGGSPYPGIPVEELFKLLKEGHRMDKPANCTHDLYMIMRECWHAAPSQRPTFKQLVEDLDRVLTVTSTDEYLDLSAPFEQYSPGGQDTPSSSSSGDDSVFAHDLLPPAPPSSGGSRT
Nature of the data set: 33P isotope-labeled kinase activity test (Reaction Biology Corp), wild-type FGFR3. Type of data set: biochemical.

Another data set has as its target T4, human FGFR1 (Homo sapiens, UniProt P11362).
T4 construct: purchased Invitrogen PV3146
Description: 33P isotope-labeled kinase activity test (Reaction Biology Corp), wild-type FGFR1. Type of data set: biochemical. To be noted: 33P-ATP 5 μM, substrate pEY + Mn, 120 minutes at room temperature. Here is the method: as §1, §2
as §3, with “After the reaction is carried out at room temperature for 120 minutes, the reaction solution is spotted on P81 ion exchange filter paper (Whatman #3698-915). After the filter paper is repeatedly washed with 0.75% phosphoric acid solution, the radioactivity of the phosphorylated substrate remaining on the filter paper is measured.” left out

Where a name gives a salt, the structure may show the parent alone. Read-outs that look alike come from different tables or passages of the source.

T2 sequence (P22455 22-802): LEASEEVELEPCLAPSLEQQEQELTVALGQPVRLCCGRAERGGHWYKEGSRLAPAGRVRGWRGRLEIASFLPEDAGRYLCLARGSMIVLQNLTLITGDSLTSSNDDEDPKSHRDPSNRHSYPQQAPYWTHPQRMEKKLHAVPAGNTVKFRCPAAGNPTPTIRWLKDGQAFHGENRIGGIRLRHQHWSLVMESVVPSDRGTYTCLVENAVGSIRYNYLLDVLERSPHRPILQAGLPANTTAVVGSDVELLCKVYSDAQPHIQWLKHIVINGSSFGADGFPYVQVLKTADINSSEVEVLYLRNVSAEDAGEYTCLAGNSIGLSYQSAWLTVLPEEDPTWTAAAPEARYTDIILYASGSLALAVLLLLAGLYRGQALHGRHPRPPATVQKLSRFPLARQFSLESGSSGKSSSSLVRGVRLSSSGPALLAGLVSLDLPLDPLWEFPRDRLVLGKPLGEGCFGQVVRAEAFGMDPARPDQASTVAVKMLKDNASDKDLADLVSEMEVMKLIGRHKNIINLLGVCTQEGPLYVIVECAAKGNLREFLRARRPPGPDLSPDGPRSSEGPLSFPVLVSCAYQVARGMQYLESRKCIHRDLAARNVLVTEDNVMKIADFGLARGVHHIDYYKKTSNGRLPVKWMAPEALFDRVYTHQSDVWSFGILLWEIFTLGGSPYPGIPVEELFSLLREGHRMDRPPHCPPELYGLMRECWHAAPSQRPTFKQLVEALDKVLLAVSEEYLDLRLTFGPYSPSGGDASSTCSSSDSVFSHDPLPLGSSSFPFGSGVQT
T4 sequence (P11362 22-822): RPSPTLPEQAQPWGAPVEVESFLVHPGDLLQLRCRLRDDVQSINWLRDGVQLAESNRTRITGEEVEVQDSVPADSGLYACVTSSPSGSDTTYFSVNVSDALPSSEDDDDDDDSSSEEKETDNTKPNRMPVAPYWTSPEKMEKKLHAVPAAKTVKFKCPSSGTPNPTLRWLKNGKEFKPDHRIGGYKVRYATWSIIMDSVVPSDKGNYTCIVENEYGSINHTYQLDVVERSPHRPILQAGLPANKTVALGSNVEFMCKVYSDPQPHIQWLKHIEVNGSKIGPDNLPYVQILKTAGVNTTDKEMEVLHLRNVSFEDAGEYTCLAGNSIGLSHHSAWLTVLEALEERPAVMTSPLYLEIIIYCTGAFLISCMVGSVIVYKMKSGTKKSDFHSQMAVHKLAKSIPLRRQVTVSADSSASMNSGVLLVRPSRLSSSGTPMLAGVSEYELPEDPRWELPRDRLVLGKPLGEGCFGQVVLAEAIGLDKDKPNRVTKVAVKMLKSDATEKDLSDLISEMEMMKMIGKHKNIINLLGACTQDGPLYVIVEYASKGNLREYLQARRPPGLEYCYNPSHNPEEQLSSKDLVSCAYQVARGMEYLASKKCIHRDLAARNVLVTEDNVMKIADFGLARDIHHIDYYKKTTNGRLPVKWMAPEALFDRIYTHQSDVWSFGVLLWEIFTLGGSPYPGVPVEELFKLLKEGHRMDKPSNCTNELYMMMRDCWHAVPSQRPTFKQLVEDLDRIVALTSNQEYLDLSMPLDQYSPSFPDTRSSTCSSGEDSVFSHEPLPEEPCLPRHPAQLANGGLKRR

For `COc1cc(OC)c(Cl)c(-c2nc(-c3nc(-c4cn(C)nc4C)cnc3N)cn(C)c2=O)c1` [Trifluoroacetate salt of 0027], the Tlast in data set [1] (300 mpk) worked out at 24.0 h. For the same compound, in data set [1] (po, 50 mg/kg, 50 mpk), the AUC(0-inf) worked out at 95.8 µM·h, the AUC(0-t) worked out at 85.8 µM·h, the maximum concentration (Cmax) was determined as 14.8 µM and the Tmax is 1 h. Also, in data set [1] (po, 50 mg/kg, 50 mpk), the half-life was 2.46 h and the MRT last stood at 4.33 h. For the same compound, in data set [1] (po, 50 mg/kg, 50 mpk, read-out: MRT0-inf), the MRT inf was found to be 5.39 h. Moreover, in data set [1] (po, 300 mg/kg, 300 mpk), the AUC(0-t) was found to be 699 µM·h, the Cmax stood at 42.1 µM, the Tmax is 7 h and the MRT last was determined as 11.1 h. The “Selectivity FGFR1/2” value at FGFR2 (ratio of IC50 FGFR1 to IC50 FGFR2) turned out to be 4.02. Further, the IC50 at FGFR2 (wild-type kinase, 33P-ATP 5 μM, substrate pEY + Mn, 120 minutes at room temperature) stood at 0.53 nM. Also, the IC50 at human FGFR4 worked out at 106 nM. Moreover, at FGFR3 (ratio of IC50 FGFR1 to IC50 FGFR3), the “Selectivity FGFR1/3” value is given as 3.06. The IC50 on FGFR3 (wild-type kinase, 33P-ATP 30 μM, substrate pEY + Mn, 120 minutes at room temperature) is 0.69 nM. Also, the half-maximal inhibitory concentration (IC50) on human FGFR1 was found to be 2.12 nM.

The AUC(0-inf) is total exposure, with the tail of the curve extrapolated. Low readings indicate less exposure, high ones more exposure. By AUC(0-t) is commonly meant exposure summed from dosing to a finite time, without extrapolation to infinity. For orientation: Cmax means the highest concentration seen after dosing. By Tmax is commonly meant the time from dosing to the highest level. In general, half-life refers to the time in which the quantity being followed falls by half. Read a high half-life as slow decline. The term IC50 denotes the concentration that inhibits the measured activity by half.
